Laboratory results reported in US9771352B2, “Hydroxyalkyl-substituted phenyltriazole derivatives and uses thereof” (BAYER PHARMA AKTIENGESELLSCHAFT, priority 2014, dated 2017).

Tests used:
human V1a receptor = molecular target: T1, human V1a receptor (Homo sapiens, UniProt P37288); experiment: Cellular in vitro assay for determining vasopressin receptor activity, V1a receptor cell line (photoprotein luminescence); format: cell-based; conditions: CHO cell line transfected with human V1a receptor; [Arg8]-vasopressin at EC50; compounds of the invention (Table 1A); read-out: IC50 hV1a
T1 construct: expressed in transfected cells; host or cells: CHO K1 (ATCC), also stably transfected with modified aequorin

human V2 receptor = molecular target: T2, human V2 receptor (Homo sapiens, UniProt P30518); experiment: Cellular in vitro assay for determining vasopressin receptor activity, V2 receptor cell line (CRE-luciferase); format: cell-based; conditions: CHO cell line transfected with human V2 receptor; [Arg8]-vasopressin at EC50; compounds of the invention (Table 1A); read-out: IC50 hV2
T2 construct: expressed in transfected cells; host or cells: CHO K1 (ATCC) expressing firefly luciferase under a CRE-responsive promoter
How it was run: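 CHO K1 cells stably expressing human V2 receptor with CRE-driven firefly luciferase, plated the day before in DMEM/F12 with 2% FCS at 37° C. Receptor activation raises cAMP and luciferase expression; after Triton lysis and luciferin addition, luminescence is read and IC50 values derived.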

conscious rats = experiment: Diuresis investigations in conscious rats kept in metabolism cages; format: in vivo, Wistar rats; conditions: Rattus norvegicus, po, read-out: Urinary volume; for response vs control in vivo at 0.3 mg/kg: dosage p.o. 0.3 mg/kg (Table 2A); for response vs control in vivo at 3 mg/kg: dosage p.o. 3.0 mg/kg (Table 2A); for response vs control in vivo at 1 mg/kg: dosage p.o. 1.0 mg/kg (Table 2A)
Procedure: Wistar rats (220-450 g body weight) are kept with free access to feed (Altromin) and drinking water. During the experiment, the animals are kept with free access to drinking water for 4 to 8 or up to 24 hours individually in metabolism cages suitable for rats of this weight class (Tecniplast Deutschland GmbH, D-82383 HohenpeiBenberg). At the beginning of the experiment, the animals are administered the test substance in a volume of 1 to 3 ml/kg body weight of a suitable solvent by means of gavage into the stomach. Control animals only receive solvent. Controls and substance tests are carried out in parallel on the same day. Control groups and substance-dose groups each consist of 4 to 8 animals. During the experiment, the urine excreted by the animals is collected continuously in a receiver at the base of the cage. The volume of urine per time unit is determined separately for each animal, and the concentration of urinary electrolytes is measured by standard methods of flame photometry. Before the beginning of the experiment, the body weight of the individual animals is determined.

T1 sequence (P37288 whole entry): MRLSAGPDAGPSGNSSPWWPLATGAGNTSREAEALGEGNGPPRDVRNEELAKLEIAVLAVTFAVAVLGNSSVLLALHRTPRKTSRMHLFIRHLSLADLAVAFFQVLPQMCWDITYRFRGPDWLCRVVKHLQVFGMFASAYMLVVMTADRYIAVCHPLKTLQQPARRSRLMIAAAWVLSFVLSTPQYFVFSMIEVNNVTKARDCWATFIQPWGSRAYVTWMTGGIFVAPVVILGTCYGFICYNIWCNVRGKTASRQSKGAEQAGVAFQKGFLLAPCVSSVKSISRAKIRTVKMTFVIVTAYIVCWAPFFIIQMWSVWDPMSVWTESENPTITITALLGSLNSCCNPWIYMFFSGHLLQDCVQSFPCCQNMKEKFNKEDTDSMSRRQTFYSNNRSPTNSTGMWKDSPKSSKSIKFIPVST
T2 sequence (P30518 whole entry): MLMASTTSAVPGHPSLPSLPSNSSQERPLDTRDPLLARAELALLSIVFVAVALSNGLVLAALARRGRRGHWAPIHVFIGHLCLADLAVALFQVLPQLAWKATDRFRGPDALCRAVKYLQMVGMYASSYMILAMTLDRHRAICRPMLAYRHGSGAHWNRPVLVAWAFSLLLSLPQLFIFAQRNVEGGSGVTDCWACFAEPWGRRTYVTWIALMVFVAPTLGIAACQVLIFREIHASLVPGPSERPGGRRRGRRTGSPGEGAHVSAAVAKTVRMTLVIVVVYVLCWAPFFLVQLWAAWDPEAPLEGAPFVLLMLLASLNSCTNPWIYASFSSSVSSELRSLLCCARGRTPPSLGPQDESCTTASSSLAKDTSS

| IC50 (human V1a receptor) [nM] | IC50 (human V2 receptor) [nM] | SMILES | response vs control in vivo at 0.3 mg/kg (conscious rats) [%] | response vs control in vivo at 3 mg/kg (conscious rats) [%] | response vs control in vivo at 1 mg/kg (conscious rats) [%] |
| --- | --- | --- | --- | --- | --- |
| 1 | 5.6 | COc1ccccc1-n1nc(Cn2nc(-c3ccc(Cl)cc3)n(C[C@H](O)C(F)(F)F)c2=O)nc1CO [Example 3, 5-(4-Chlorophenyl)-2-{[5-(hydroxymethyl)-1-(2-methoxyphenyl)-1H-1,2,4-triazol-3-yl]methyl}-4-[(2S)-3,3,3-trifluoro-2-hydroxypropyl]-2,4-dihydro-3H-1,2,4-triazol-3-one] | 89 | 450 | – |
| 0.4 | 5.3 | O=c1n(Cc2nc(CO)n(-c3ccccc3Cl)n2)nc(-c2ccc(Cl)cc2)n1C[C@H](O)C(F)(F)F [Example 4, 5-(4-Chlorophenyl)-2-{[1-(2-chlorophenyl)-5-(hydroxymethyl)-1H-1,2,4-triazol-3-yl]methyl}-4-[(2S)-3,3,3-trifluoro-2-hydroxypropyl]-2,4-dihydro-3H-1,2,4-triazol-3-one] | 91 | – | 190 |
| 0.4 | 1.8 | Cc1ccccc1-n1nc(Cn2nc(-c3ccc(Cl)cc3)n(C[C@H](O)C(F)(F)F)c2=O)nc1CO [Example 5, 5-(4-Chlorophenyl)-2-{[5-(hydroxymethyl)-1-(2-methylphenyl)-1H-1,2,4-triazol-3-yl]methyl}-4-[(2S)-3,3,3-trifluoro-2-hydroxypropyl]-2,4-dihydro-3H-1,2,4-triazol-3-one] | 166 | – | 438 |
| 1 | 6.7 | C[C@@H](O)c1nc(Cn2nc(-c3ccc(Cl)cc3)n(C[C@H](O)C(F)(F)F)c2=O)nn1-c1ccccc1Cl [Example 83, 5-(4-Chlorophenyl)-2-({1-(2-chlorophenyl)-5-[(1R)-1-hydroxyethyl]-1H-1,2,4-triazol-3-yl}-methyl)-4-[(2S)-3,3,3-trifluoro-2-hydroxypropyl]-2,4-dihydro-3H-1,2,4-triazol-3-one] | 279 | – | – |

The next lines start with the compound.

| SMILES | IC50 (human V1a receptor) [nM] | IC50 (human V2 receptor) [nM] | response vs control in vivo at 0.3 mg/kg (conscious rats) [%] | response vs control in vivo at 3 mg/kg (conscious rats) [%] | response vs control in vivo at 1 mg/kg (conscious rats) [%] |
| --- | --- | --- | --- | --- | --- |
| O=c1n(Cc2nc(CO)n(-c3cccc(Cl)c3)n2)nc(-c2ccc(Cl)cc2)n1C[C@H](O)C(F)(F)F [Example 1, 5-(4-Chlorophenyl)-2-{[1-(3-chlorophenyl)-5-(hydroxymethyl)-1H-1,2,4-triazol-3-yl]methyl}-4-[(2S)-3,3,3-trifluoro-2-hydroxypropyl]-2,4-dihydro-3H-1,2,4-triazol-3-one] | 6 | 2.5 | 194 | 588 | – |
| O=c1n(Cc2nc(CO)n(-c3cccc(F)c3)n2)nc(-c2ccc(Cl)cc2)n1C[C@H](O)C(F)(F)F [Example 2, 5-(4-Chlorophenyl)-2-{[1-(3-fluorophenyl)-5-(hydroxymethyl)-1H-1,2,4-triazol-3-yl]methyl}-4-[(2S)-3,3,3-trifluoro-2-hydroxypropyl]-2,4-dihydro-3H-1,2,4-triazol-3-one] | 5 | 8.7 | 194 | 588 | – |
| O=c1n(Cc2nc(CO)n(-c3cc(F)cc(Cl)c3)n2)nc(-c2ccc(Cl)cc2)n1C[C@H](O)C(F)(F)F [Example 6, 2-{[1-(3-Chloro-5-fluorophenyl)-5-(hydroxymethyl)-1H-1,2,4-triazol-3-yl]methyl}-5-(4-chlorophenyl)-4-[(2S)-3,3,3-trifluoro-2-hydroxypropyl]-2,4-dihydro-3H-1,2,4-triazol-3-one] | 10.6 | 1.7 | 132 | – | 439 |
| C[C@H](O)c1nc(Cn2nc(-c3ccc(Cl)cc3)n(C[C@H](O)C(F)(F)F)c2=O)nn1-c1cccc(F)c1 [Example 76, 5-(4-Chlorophenyl)-2-({1-(3-fluorophenyl)-5-[(1S)-1-hydroxyethyl]-1H-1,2,4-triazol-3-yl}-methyl)-4-[(2S)-3,3,3-trifluoro-2-hydroxypropyl]-2,4-dihydro-3H-1,2,4-triazol-3-one] | 2.5 | 5.1 | 350 | – | – |
| C[C@H](O)c1nc(Cn2nc(-c3ccc(Cl)cc3)n(C[C@H](O)C(F)(F)F)c2=O)nn1-c1cccc(Cl)c1 [Example 79, 5-(4-Chlorophenyl)-2-({1-(3-chlorophenyl)-5-[(1S)-1-hydroxyethyl]-1H-1,2,4-triazol-3-yl}-methyl)-4-[(2S)-3,3,3-trifluoro-2-hydroxypropyl]-2,4-dihydro-3H-1,2,4-triazol-3-one] | 3.6 | 1.7 | 612 | – | – |
| C[C@H](O)c1nc(Cn2nc(-c3ccc(Cl)cc3)n(C[C@H](O)C(F)(F)F)c2=O)nn1-c1ccccc1Cl [Example 82, 5-(4-Chlorophenyl)-2-({1-(2-chlorophenyl)-5-[(1S)-1-hydroxyethyl]-1H-1,2,4-triazol-3-yl}-methyl)-4-[(2S)-3,3,3-trifluoro-2-hydroxypropyl]-2,4-dihydro-3H-1,2,4-triazol-3-one] | 0.7 | 2.3 | 220 | 828 | – |
